According to US20230357179A1, “RAF KINASE INHIBITORS AND METHODS OF USE THEREOF” (Deciphera Pharmaceuticals, LLC, priority 2021, published 2023):

How the values were obtained:
B-Raf kinase = target: T1, B-Raf kinase (Homo sapiens, UniProt P15056); test: Biochemical assay for B-Raf.1 (coupled pyruvate kinase/lactate dehydrogenase); details: read-out: BRAF.1 IC50
T1 construct: GST (N); purchased Sigma
Outline: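 NADH oxidation followed at 340 nm in a pyruvate kinase/lactate dehydrogenase-coupled assay with 0.13 nM B-Raf, 30.1 nM MEK substrate, 1 mM ATP, pH 7.5 Tris buffer, 1% DMSO. Monitored 6 h at 30 °C; rate taken from 4–5 h. IC50 from four-parameter sigmoidal fit.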

A-Raf kinase = target: T2, A-Raf kinase (Homo sapiens, UniProt P10398, Y301D/Y302D); test: Biochemical assay for A-Raf.1 (coupled pyruvate kinase/lactate dehydrogenase); details: read-out: ARAF.1 IC50
T2 construct: purchased Sigma
Outline: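 A-Raf (5.55 nM) phosphorylating 30.1 nM MEK with 1 mM ATP was monitored by pyruvate kinase/lactate dehydrogenase-coupled NADH oxidation at 340 nm for 6 h at 30° C, in pH 7.5 Tris buffer with 15 mM MgCl2, 1% DMSO. Rates from 4–5 h gave percent inhibition; IC50 by four-parameter fit.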

A375 cells = test: A375 cell proliferation assay (1), resazurin, 96-well; type: cell-based; details: Homo sapiens, A-375, inhibition of cell proliferation
Outline: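 Viability was read by resazurin fluorescence at 540 nm excitation and 600 nm emission, using a 440 μM solution added for 5–6 h at the end of culture. IC50 came from the curve fit.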

T2 sequence (P10398 with tags, fused parts or gaps Y301D/Y302D): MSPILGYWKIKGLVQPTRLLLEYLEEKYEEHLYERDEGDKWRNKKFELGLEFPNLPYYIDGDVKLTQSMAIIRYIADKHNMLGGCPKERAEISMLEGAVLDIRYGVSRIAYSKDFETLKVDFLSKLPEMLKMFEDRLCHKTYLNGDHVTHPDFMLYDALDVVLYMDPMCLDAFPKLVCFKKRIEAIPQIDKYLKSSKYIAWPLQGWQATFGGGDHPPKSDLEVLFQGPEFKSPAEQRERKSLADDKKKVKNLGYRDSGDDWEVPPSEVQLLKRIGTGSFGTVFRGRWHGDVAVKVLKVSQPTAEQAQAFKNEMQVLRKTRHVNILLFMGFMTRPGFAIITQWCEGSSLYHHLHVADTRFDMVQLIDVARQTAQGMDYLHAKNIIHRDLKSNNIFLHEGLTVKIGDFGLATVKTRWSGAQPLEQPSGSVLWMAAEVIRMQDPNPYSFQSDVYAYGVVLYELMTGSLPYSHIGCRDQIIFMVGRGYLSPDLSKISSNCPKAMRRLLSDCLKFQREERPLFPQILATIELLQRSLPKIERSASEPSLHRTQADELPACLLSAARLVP
T1 sequence (P15056 416-766): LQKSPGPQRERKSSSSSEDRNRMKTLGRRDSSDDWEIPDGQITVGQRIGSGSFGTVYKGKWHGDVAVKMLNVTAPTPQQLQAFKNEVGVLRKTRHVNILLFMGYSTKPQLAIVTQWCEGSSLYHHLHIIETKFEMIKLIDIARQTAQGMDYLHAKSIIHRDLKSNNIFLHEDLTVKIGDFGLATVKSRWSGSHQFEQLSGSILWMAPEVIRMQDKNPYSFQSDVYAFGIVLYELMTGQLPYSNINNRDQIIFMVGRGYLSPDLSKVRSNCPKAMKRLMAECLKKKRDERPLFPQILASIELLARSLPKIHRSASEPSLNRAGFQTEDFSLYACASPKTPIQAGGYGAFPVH

IC50 (B-Raf kinase)	IC50 (A-Raf kinase)	IC50 (A375 cells)	SMILES
≤ 100 nM	> 1000 nM	1000 to 10000 nM	Cc1ccc(NC(=O)NCCC(C)(C)C)cc1-c1ccnc(N2CCOCC2)c1 [Example 18]
≤ 100 nM	> 1000 nM	100 to 500 nM	Cc1cc(F)c(NC(=O)NCCC2(C(F)(F)F)CC2)cc1-c1cc(OCCO)nc(C2CCOCC2)c1 [Example 24]
≤ 100 nM	> 1000 nM	1000 to 10000 nM	COC(C)(C)CCNC(=O)Nc1ccc(C)c(-c2cc(-c3cnn(C)c3)nc(N3CCOCC3)c2)c1 [Example 38]
> 1000 nM	> 1000 nM	1000 to 10000 nM	Cc1ccc(NC(=O)Nc2cn(C)nc2C(F)(F)F)cc1-c1cc(OCCO)nc(N2CCOCC2)c1 [Example 42]
100 to 500 nM	> 1000 nM	≤ 100 nM	Cc1ccc(NC(=O)Nc2cnc(C(F)(F)F)s2)cc1-c1cc(OCCO)nc(N2CCOCC2)c1 [Example 43]
≤ 100 nM	100 to 500 nM	≤ 100 nM	CC(=O)Nc1cc(-c2cc(-c3cc(NC(=O)NC4CC(C)(C)C4)c(F)cc3C)cc(OCCO)n2)ccn1 [Example 47]
≤ 100 nM	> 1000 nM	1000 to 10000 nM	CC(=O)Nc1cc(-c2cc(-c3cc(NC(=O)Nc4ccc(C(F)(F)F)cc4)cnc3C)ccn2)ccn1 [Example 48]
≤ 100 nM	100 to 500 nM	1000 to 10000 nM	CC(=O)Nc1cc(-c2cc(-c3cc(NC(=O)N[C@H]4C[C@](C)(F)C4)ccc3C)cc(OCCO)n2)ccn1 [Example 49]
≤ 100 nM	> 1000 nM	1000 to 10000 nM	Cc1ccc(NC(=O)N[C@H]2C[C@](C)(F)C2)cc1-c1cc(OCCO)nc(-c2ccnc(NC(=O)CN(C)C)c2)c1 [Example 50]
≤ 100 nM	> 1000 nM	1000 to 10000 nM	CC(=O)Nc1cc(-c2cc(-c3cc(NC(=O)NCCC4(C)CC4)c(F)cc3C)cc(C3CC3)n2)ccn1 [Example 51]
≤ 100 nM	> 1000 nM	1000 to 10000 nM	CC(=O)Nc1cc(-c2cc(-c3cc(NC(=O)NCC45CC(F)(C4)C5)c(F)cc3C)cc(OCCO)n2)ccn1 [Example 52]
≤ 100 nM	100 to 500 nM	≤ 100 nM	CC(=O)Nc1cc(-c2cc(-c3cc(NC(=O)NC4CCCCC4)c(F)cc3C)cc(OCCO)n2)ccn1 [Example 53]
≤ 100 nM	> 1000 nM	100 to 500 nM	CC(=O)Nc1cc(-c2cc(-c3cc(NC(=O)NCCC4(C(F)(F)F)CC4)c(F)cc3C)cc(C3CC3)n2)ccn1 [Example 54]
≤ 100 nM	100 to 500 nM	1000 to 10000 nM	CC(=O)Nc1cc(-c2cc(-c3cc(NC(=O)NCCC4(C)CC4)c(F)cc3C)cc(C)n2)ccn1 [Example 55]
≤ 100 nM	500 to 1000 nM	100 to 500 nM	CC(=O)Nc1cc(-c2cc(-c3cc(NC(=O)NCCC4(C)CC4)ccc3C)cc(N3CCOCC3)n2)ccn1 [Example 57]
≤ 100 nM	100 to 500 nM	1000 to 10000 nM	CC(=O)Nc1cc(-c2cc(-c3cc(NC(=O)NCCC(C)(C)C#N)c(F)cc3C)cc(C3CC3)n2)ccn1 [Example 59]
> 1000 nM	> 1000 nM	1000 to 10000 nM	COC(C)(C)CCNC(=O)Nc1ccc(C)c(-c2cc(-c3ccnc(NC(C)=O)c3)n(C)c(=O)c2)c1 [Example 60]
≤ 100 nM	> 1000 nM	1000 to 10000 nM	Cc1ccc(NC(=O)N[C@H]2C[C@](C)(F)C2)cc1-c1cc(-c2ccnc(NC(=O)C3CC3)c2)nc(C2CC2)c1 [Example 61]
≤ 100 nM	500 to 1000 nM	≤ 100 nM	CC(=O)Nc1cc(-c2cc(-c3cc(NC(=O)NC4CCC(F)(F)CC4)c(F)cc3C)cc(OCCO)n2)ccn1 [Example 63]

IC50 (B-Raf kinase)	IC50 (A-Raf kinase)	IC50 (A375 cells)	SMILES
≤ 100 nM	> 1000 nM	1000 to 10000 nM	Cc1ccc(NC(=O)Nc2ccnc(C(C)(C)C#N)c2)cc1-c1ccnc(-c2ccnc(C(=O)NC3CC3)c2)c1 [Example 68]
≤ 100 nM	> 1000 nM	1000 to 10000 nM	CNC(=O)c1cc(-c2cc(-c3cc(NC(=O)Nc4ccnc(C(C)(C)C#N)c4)ccc3C)ccn2)ccn1 [Example 69]
≤ 100 nM	100 to 500 nM	1000 to 10000 nM	COC(C)(C)CCNC(=O)Nc1cc(-c2cccc(-c3ccnc(NC(C)=O)c3)c2)c(C)cc1F [Example 71]
100 to 500 nM	> 1000 nM	1000 to 10000 nM	CNC(=O)c1cc(-c2cccc(-c3cc(NC(=O)NCCC(C)(C)OC)c(F)cc3C)c2)ccn1 [Example 72]
≤ 100 nM	> 1000 nM	500 to 1000 nM	COC(C)(C)CCNC(=O)Nc1cc(-c2cnnc(-c3ccnc(NC(=O)C4CC4)c3)c2)c(C)cc1F [Example 173]
100 to 500 nM	> 1000 nM	1000 to 10000 nM	COC(=O)Nc1cc(-c2nc(OCCO)cc(-c3cc(NC(=O)NC4CC(C)(C)C4)cnc3C)n2)ccn1 [Example 174]
≤ 100 nM	100 to 500 nM	100 to 500 nM	CC(=O)Nc1cc(-c2cc(-c3cc(NC(=O)NCCC4(C)CC4)c(F)cc3C)cc(NCCO)n2)ccn1 [Example 175]
> 1000 nM	> 1000 nM	1000 to 10000 nM	COC[C@H]1CCN(C(=O)Nc2cnc(C)c(-c3ccnc(-c4ccnc(NC(=O)OC)c4)c3)c2)C1 [Example 176]
> 1000 nM	> 1000 nM	1000 to 10000 nM	CNC(=O)c1cc(-c2cnnc(-c3cc(NC(=O)N4CC[C@H](OC)C4)ccc3C)c2)ccn1 [Example 177]
> 1000 nM	> 1000 nM	1000 to 10000 nM	CNC(=O)c1cc(-c2cnnc(-c3cc(NC(=O)N4CCC5(CC5)C4)ccc3C)c2)ccn1 [Example 178]
> 1000 nM	> 1000 nM	1000 to 10000 nM	COC[C@@H]1CCN(C(=O)Nc2cnc(C)c(-c3ccnc(-c4ccnc(NC(=O)OC)c4)c3)c2)C1 [Example 179]
500 to 1000 nM	> 1000 nM	100 to 500 nM	CNC(=O)c1cc(-c2cnnc(-c3cc(NC(=O)N4CCC(C(C)(C)C)C4)ccc3C)c2)ccn1 (stereo not drawn) [Example 180]
> 1000 nM	> 1000 nM	1000 to 10000 nM	CNC(=O)c1cc(-c2cnnc(-c3cc(NC(=O)N4CC[C@@H](OC)C4)ccc3C)c2)ccn1 [Example 181]
500 to 1000 nM	> 1000 nM	1000 to 10000 nM	CNC(=O)c1cc(-c2cnnc(-c3cc(NC(=O)N4CC[C@@H](OC(F)(F)F)C4)ccc3C)c2)ccn1 [Example 182]
> 1000 nM	> 1000 nM	1000 to 10000 nM	CNC(=O)c1cc(-c2cnnc(-c3cc(NC(=O)N4CCC(C(C)(C)C)C4)cnc3C)c2)ccn1 (stereo not drawn) [Example 184]
100 to 500 nM	> 1000 nM	100 to 500 nM	COC(=O)Nc1cc(-c2cnnc(-c3cc(NC(=O)N4CCC(C(C)(C)C)C4)ccc3C)c2)ccn1 (stereo not drawn) [Example 185]
≤ 100 nM	> 1000 nM	1000 to 10000 nM	COC(=O)Nc1cc(-c2cc(-c3cc(NC(=O)NCCC4(C)CC4)ccc3F)cc(OCCO)n2)ccn1 [Example 187]
≤ 100 nM	> 1000 nM	500 to 1000 nM	COC(=O)Nc1cc(-c2cc(-c3cc(NC(=O)NCCC4(C)CC4)c(F)cc3F)cc(OCCO)n2)ccn1 [Example 188]
≤ 100 nM	> 1000 nM	1000 to 10000 nM	COC(=O)Nc1cc(-c2nccc(-c3cc(NC(=O)N4CCC(C(F)(F)F)C4)ccc3C)n2)ccn1 (stereo not drawn) [Example 193]
